Calls of active or inactive are those of the source. No cut-off for these calls is given here.
Key:
[1] = Hemolytic activity against RBC (unknown origin) at 10 uM; format: ADME, cell-based, Erythrocyte; conditions: red blood cells (erythrocytes); read-out: Activity
[2] = Selectivity index, ratio of IC50 for human Chang cells to IC50 for human HepG2 cells
[3] = tested on: Staphylococcus aureus; experiment: Antibacterial activity against clinical isolate amoxicillin and ciprofloxacin resistance Staphylococcus aureus; format: functional
[4] = tested on: Trichophyton mentagrophytes; experiment: Fungicidal activity against Trichophyton mentagrophytes; format: functional
[5] = tested on: Trichophyton mentagrophytes; experiment: Antifungal activity against Trichophyton mentagrophytes; format: functional
[6] = Hemolytic activity against RBC (unknown origin) at 120 uM; format: ADME, cell-based, Erythrocyte; conditions: red blood cells (erythrocytes); read-out: Activity
[7] = Selectivity index, ratio of IC50 for human Chang cells to IC50 for human MCF7 cells
[8] = tested on: Candida albicans; experiment: Fungicidal activity against Candida albicans; format: functional
[9] = tested on: Bacillus cereus; experiment: Antibacterial activity against Bacillus cereus; format: functional
[10] = Selectivity index, ratio of IC50 for human Chang cells to IC50 for human M-HeLa cells
[11] = Hemolytic activity against RBC (unknown origin) at 5 uM; format: ADME, cell-based, Erythrocyte; conditions: red blood cells (erythrocytes); read-out: Activity
[12] = tested on: Staphylococcus aureus; experiment: Bactericidal activity against clinical isolate amoxicillin resistance Staphylococcus aureus; format: functional
[13] = Cytotoxicity against human Chang cells; format: cell-based
[14] = tested on: PANC-1; experiment: Cytotoxicity against human PANC1 cells; format: functional, cell-based
[15] = tested on: MCF7; experiment: Cytotoxicity against human MCF7 cells; format: functional, cell-based
[16] = tested on: M-HeLa; experiment: Cytotoxicity against human M-HeLa cells; format: functional, cell-based
[17] = Hemolytic activity against RBC (unknown origin) at 40 uM; format: ADME, cell-based, Erythrocyte; conditions: red blood cells (erythrocytes); read-out: Activity
[18] = Hemolytic activity against RBC (unknown origin) at 60 uM; format: ADME, cell-based, Erythrocyte; conditions: red blood cells (erythrocytes); read-out: Activity
[19] = tested on: Staphylococcus aureus; experiment: Antibacterial activity against clinical isolate amoxicillin resistance Staphylococcus aureus; format: functional
[20] = Hemolytic activity against RBC (unknown origin) at 480 uM; format: ADME, cell-based, Erythrocyte; conditions: red blood cells (erythrocytes); read-out: Activity
[21] = Hemolytic activity against RBC (unknown origin) at 240 uM; format: ADME, cell-based, Erythrocyte; conditions: red blood cells (erythrocytes); read-out: Activity
[22] = Selectivity index, ratio of IC50 for human Chang cells to IC50 for human PANC1 cells
[23] = tested on: Candida albicans; experiment: Antifungal activity against Candida albicans; format: functional
[24] = Hemolytic activity against RBC (unknown origin) at 1 uM; format: ADME, cell-based, Erythrocyte; conditions: red blood cells (erythrocytes); read-out: Activity
[25] = tested on: Staphylococcus aureus; experiment: Bactericidal activity against clinical isolate amoxicillin and ciprofloxacin resistance Staphylococcus aureus; format: functional
[26] = tested on: Staphylococcus aureus; experiment: Bactericidal activity against Staphylococcus aureus ATCC 209p; format: functional
[27] = tested on: HepG2; experiment: Cytotoxicity against human HepG2 cells; format: functional, cell-based; conditions: read-out: IC50
[28] = Hemolytic activity against RBC (unknown origin) at 20 uM; format: ADME, cell-based, Erythrocyte; conditions: red blood cells (erythrocytes); read-out: Activity
[29] = tested on: Bacillus cereus; experiment: Bactericidal activity against Bacillus cereus; format: functional
[30] = tested on: Staphylococcus aureus; experiment: Antibacterial activity against Staphylococcus aureus ATCC 209p; format: functional
[31] = tested on: Staphylococcus aureus; experiment: Antibacterial activity against Staphylococcus aureus ATCC 209p assessed as increase in crystal violet uptake at 2 uM incubated for 30 mins (reference value: 1.8 %); format: functional
[32] = tested on: M-HeLa; experiment: Induction of apoptosis in human M-HeLa cells assessed as necrotic cells at 6 uM incubated for 24 hrs by Annexin-V FITC and propidium iodide staining based flow cytometry analysis (reference value: 1.32 %); format: functional
[33] = tested on: M-HeLa; experiment: Induction of apoptosis in human M-HeLa cells assessed as viable cells at 6 uM incubated for 24 hrs by Annexin-V FITC and propidium iodide staining based flow cytometry analysis (reference value: 90.48 %); format: functional; conditions: read-out: Activity
[34] = tested on: M-HeLa; experiment: Induction of mitochondrial membrane potential loss in human M-HeLa cells assessed as decrease in red fluorescence intensity at 6 uM by JC10 staining based flow cytometry analysis (reference value: 99.70 %); format: functional; design: scale not given: the % may be the effect or the level left
[35] = tested on: M-HeLa; experiment: Induction of apoptosis in human M-HeLa cells assessed as late apoptotic cells at 3 uM incubated for 24 hrs by Annexin-V FITC and propidium iodide staining based flow cytometry analysis (reference value: 0.36 %); format: functional
[36] = tested on: M-HeLa; experiment: Induction of apoptosis in human M-HeLa cells assessed as early apoptotic cells at 3 uM incubated for 24 hrs by Annexin-V FITC and propidium iodide staining based flow cytometry analysis (reference value: 7.85 %); format: functional
[37] = tested on: M-HeLa; experiment: Induction of mitochondrial membrane potential loss in human M-HeLa cells assessed as decrease in red fluorescence intensity by JC10 staining based flow cytometry analysis; format: functional, cell-based
[38] = tested on: M-HeLa; experiment: Induction of apoptosis in human M-HeLa cells assessed as early apoptotic cells at 6 uM incubated for 24 hrs by Annexin-V FITC and propidium iodide staining based flow cytometry analysis (reference value: 7.85 %); format: functional
[39] = tested on: M-HeLa; experiment: Induction of apoptosis in human M-HeLa cells assessed as necrotic cells at 3 uM incubated for 24 hrs by Annexin-V FITC and propidium iodide staining based flow cytometry analysis (reference value: 1.32 %); format: functional
[40] = tested on: M-HeLa; experiment: Induction of apoptosis in human M-HeLa cells assessed as viable cells at 3 uM incubated for 24 hrs by Annexin-V FITC and propidium iodide staining based flow cytometry analysis (reference value: 90.48 %); format: functional; conditions: read-out: Activity
[41] = tested on: M-HeLa; experiment: Induction of mitochondrial membrane potential loss in human M-HeLa cells assessed as decrease in red fluorescence intensity at 3 uM by JC10 staining based flow cytometry analysis (reference value: 99.70 %); format: functional; design: scale not given: the % may be the effect or the level left
[42] = tested on: M-HeLa; experiment: Induction of apoptosis in human M-HeLa cells assessed as late apoptotic cells at 6 uM incubated for 24 hrs by Annexin-V FITC and propidium iodide staining based flow cytometry analysis (reference value: 0.36 %); format: functional
[43] = tested on: M-HeLa; experiment: Induction of apoptosis in human M-HeLa cells assessed as early apoptotic cells incubated for 24 hrs by Annexin-V FITC and propidium iodide staining based flow cytometry analysis; format: functional, cell-based
[44] = Biosurfactant activity assessed as Critical micelle concentration of compound by conductometry analysis; format: physicochemical
[45] = Biosurfactant activity assessed as critical micelle concentration of compound by tensiometry analysis; format: functional

SMILES: CCCCCCC[P+](Cc1ccccc1O)(c1ccccc1)c1ccccc1.[Cl-]
- hemolysis at 10 µM [1]: 0.2%
- Ratio IC50 [2]: 1.6
- MIC [3]: 36.6 µM
- MFC [4]: inactive
- MIC [5]: 586 µM
- hemolysis at 120 µM [6]: 0.4%
- Ratio IC50 [7]: 1.3
- MFC [8]: inactive
- MIC [9]: 36.6 µM
- Ratio IC50 [10]: 7.6
- hemolysis at 5 µM [11]: 0%
- MBC [12]: 73.2 µM
- IC50 [13]: 41.6 µM
- IC50 [14]: 40 µM
- IC50 [15]: 32.8 µM
- IC50 [16]: 5.5 µM
- hemolysis at 40 µM [17]: 0.3%
- hemolysis at 60 µM [18]: 0.3%
- MIC [19]: 73.2 µM
- hemolysis at 480 µM [20]: 3.6%
- hemolysis at 240 µM [21]: 1.9%
- Ratio IC50 [22]: 1.04
- MIC [23]: 586 µM
- hemolysis at 1 µM [24]: 0%
- MBC [25]: 146 µM
- MBC [26]: 18.3 µM
- IC50 [27]: 26.3 µM
- hemolysis at 20 µM [28]: 0.3%
- MBC [29]: 146 µM
- MIC [30]: 18.3 µM

SMILES: CCCCCCCCCC[P+](Cc1ccccc1O)(c1ccccc1)c1ccccc1.[Cl-]
- hemolysis at 10 µM [1]: 0.8%
- Ratio IC50 [2]: 3.7
- MIC [3]: 8.2 µM
- MFC [4]: 16.6 µM
- MIC [5]: 16.6 µM
- hemolysis at 120 µM [6]: 5.9%
- Ratio IC50 [7]: 3.5
- MFC [8]: 16.6 µM
- MIC [9]: 1.9 µM
- Ratio IC50 [10]: 13.4
- hemolysis at 5 µM [11]: 0%
- MBC [12]: 16.4 µM
- IC50 [13]: 45.7 µM
- IC50 [14]: 26.3 µM
- IC50 [15]: 13.2 µM
- IC50 [16]: 3.4 µM
- hemolysis at 40 µM [17]: 2.3%
- hemolysis at 60 µM [18]: 2.8%
- MIC [19]: 8.2 µM
- hemolysis at 480 µM [20]: 16.4%
- hemolysis at 240 µM [21]: 9.6%
- Ratio IC50 [22]: 1.7
- MIC [23]: 16.6 µM
- hemolysis at 1 µM [24]: 0%
- MBC [25]: 32.8 µM
- MBC [26]: 4.1 µM
- Activity [31]: 24 - 82.7%
- IC50 [27]: 12.3 µM
- hemolysis at 20 µM [28]: 1.3%
- MBC [29]: 4.1 µM
- MIC [30]: 1 µM

SMILES: CCCCCCCCCCCC[P+](Cc1ccccc1O)(c1ccccc1)c1ccccc1.[Cl-]
- Activity [32]: 2.42%
- viability at 6 µM [33]: 33.4%
- hemolysis at 10 µM [1]: 1.3%
- Ratio IC50 [2]: 4.5
- MIC [3]: 2 µM
- MFC [4]: 7.8 µM
- MIC [5]: 7.8 µM
- hemolysis at 120 µM [6]: 21.2%
- Ratio IC50 [7]: 5.9
- Activity [34]: 39.17%
- MFC [8]: 7.8 µM
- MIC [9]: 0.9 µM
- Activity [35]: 9.78%
- Activity [36]: 39.26%
- Activity [37]: Dose-dependent effect
- Ratio IC50 [10]: 16.4
- hemolysis at 5 µM [11]: 0.9%
- MBC [12]: 16 µM
- IC50 [13]: 42.8 µM
- IC50 [14]: 25.3 µM
- IC50 [15]: 7.2 µM
- IC50 [16]: 2.6 µM
- hemolysis at 40 µM [17]: 2.9%
- hemolysis at 60 µM [18]: 12.2%
- MIC [19]: 4 µM
- Activity [38]: 53.31%
- hemolysis at 480 µM [20]: 65.4%
- hemolysis at 240 µM [21]: 42.3%
- Ratio IC50 [22]: 1.7
- MIC [23]: 7.8 µM
- hemolysis at 1 µM [24]: 0%
- MBC [25]: 8 µM
- MBC [26]: 2 µM
- Activity [39]: 4.57%
- Activity [31]: 24 - 82.7%
- viability at 3 µM [40]: 46.4%
- Activity [41]: 76.61%
- IC50 [27]: 9.8 µM
- Activity [42]: 10.89%
- hemolysis at 20 µM [28]: 1.8%
- Activity [43]: Dose-dependent effect
- MBC [29]: 3.8 µM
- MIC [30]: 1 µM

SMILES: CCCCCCCCCCCCCCCCCC[P+](Cc1ccccc1O)(c1ccccc1)c1ccccc1.[Cl-]
- hemolysis at 10 µM [1]: 0%
- Ratio IC50 [2]: 0.94
- MIC [3]: inactive
- MFC [4]: inactive
- MIC [5]: inactive
- hemolysis at 120 µM [6]: 15.6%
- Ratio IC50 [7]: 1.4
- CMC [44]: 0.04 mM
- MFC [8]: inactive
- MIC [9]: 108 µM
- Ratio IC50 [10]: 1
- hemolysis at 5 µM [11]: 0%
- MBC [12]: inactive
- IC50 [13]: 69 µM
- IC50 [14]: 65 µM
- IC50 [15]: 49 µM
- IC50 [16]: 68 µM
- hemolysis at 40 µM [17]: 1.4%
- hemolysis at 60 µM [18]: 2.5%
- MIC [19]: inactive
- hemolysis at 480 µM [20]: 100%
- hemolysis at 240 µM [21]: 100%
- Ratio IC50 [22]: 1.1
- MIC [23]: inactive
- hemolysis at 1 µM [24]: 0%
- MBC [25]: inactive
- MBC [26]: 215 µM
- IC50 [27]: 73 µM
- hemolysis at 20 µM [28]: 1.2%
- MBC [29]: 215 µM
- MIC [30]: 108 µM
- CMC [45]: 0.04 mM

Reference: ChEMBL document CHEMBL4622868, “Design and synthesis of amphiphilic 2-hydroxybenzylphosphonium salts with antimicrobial and antitumor dual action” (Bioorg Med Chem Lett, 2020)
